The source made the active and inactive calls. The calls are words filed in the database; no cut-off is given here.
How the values were obtained:
[1] = Half life in 12 hr fasted SPF Sprague-Dawley rat at 15 mg/kg, po upon 2 hrs fasting post-administration measured upto 24 hrs; format: ADME, organism-based; conditions: in vivo
[2] = target: Tyrosine-protein kinase TXK (Homo sapiens) (UniProt P42681); assay: Inhibition of TXK (unknown origin) at 0.5 uM relative to control
U-937 [3] = assay: Induction of cell cycle arrest in human U-937 cells assessed as accumulation at S phase at 33 nM measured after 24 hrs by propidium iodide staining based flow cytometric analysis (reference value: 15.35%); format: functional
[4] = target: T1, Signal transducer and activator of transcription 5A (Homo sapiens) (UniProt P42229); assay: Inhibition of STAT5 in human U-937 cells assessed as decrease in P-STAT5 phosphorylation at 200 uM pretreated for 10 hrs followed by compound washout by immunoblotting analysis; format: cell-based
T1 sequence (whole entry): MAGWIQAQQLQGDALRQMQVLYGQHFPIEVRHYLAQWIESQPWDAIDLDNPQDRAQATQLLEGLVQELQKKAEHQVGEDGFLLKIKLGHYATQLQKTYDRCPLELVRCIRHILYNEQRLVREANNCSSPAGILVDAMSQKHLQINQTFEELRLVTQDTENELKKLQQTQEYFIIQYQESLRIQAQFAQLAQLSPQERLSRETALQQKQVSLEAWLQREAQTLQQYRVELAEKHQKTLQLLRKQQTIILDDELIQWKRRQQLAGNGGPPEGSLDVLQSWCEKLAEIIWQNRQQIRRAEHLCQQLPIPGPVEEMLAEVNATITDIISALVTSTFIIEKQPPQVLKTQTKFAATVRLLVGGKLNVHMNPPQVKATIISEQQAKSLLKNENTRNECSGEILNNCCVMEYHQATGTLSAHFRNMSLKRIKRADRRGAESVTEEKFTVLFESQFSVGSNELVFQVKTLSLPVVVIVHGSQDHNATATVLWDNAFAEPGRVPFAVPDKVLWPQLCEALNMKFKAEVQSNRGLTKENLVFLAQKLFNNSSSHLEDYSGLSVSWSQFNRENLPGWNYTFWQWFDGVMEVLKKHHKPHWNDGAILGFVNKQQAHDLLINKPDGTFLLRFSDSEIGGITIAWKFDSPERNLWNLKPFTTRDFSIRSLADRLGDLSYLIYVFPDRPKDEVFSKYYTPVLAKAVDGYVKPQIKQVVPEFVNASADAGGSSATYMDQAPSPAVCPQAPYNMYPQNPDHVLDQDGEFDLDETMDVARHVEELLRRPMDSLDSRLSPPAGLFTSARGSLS

U-937 [5] = assay: Induction of cell cycle arrest in human U-937 cells assessed as accumulation at G2/M phase at 3.7 nM measured after 24 hrs by propidium iodide staining based flow cytometric analysis (reference value: 21.41%); format: functional
U-937 [6] = assay: Induction of cell cycle arrest in human U-937 cells assessed as accumulation at S phase at 100 nM measured after 24 hrs by propidium iodide staining based flow cytometric analysis (reference value: 15.35%); format: functional
[7] = target: Receptor tyrosine-protein kinase erbB-4 (Homo sapiens) (UniProt Q15303); assay: Inhibition of HER4 (unknown origin) at 0.5 uM assessed as competition rate relative to control
Sequence of Receptor tyrosine-protein kinase erbB-4 (Homo sapiens) (Q15303 whole entry): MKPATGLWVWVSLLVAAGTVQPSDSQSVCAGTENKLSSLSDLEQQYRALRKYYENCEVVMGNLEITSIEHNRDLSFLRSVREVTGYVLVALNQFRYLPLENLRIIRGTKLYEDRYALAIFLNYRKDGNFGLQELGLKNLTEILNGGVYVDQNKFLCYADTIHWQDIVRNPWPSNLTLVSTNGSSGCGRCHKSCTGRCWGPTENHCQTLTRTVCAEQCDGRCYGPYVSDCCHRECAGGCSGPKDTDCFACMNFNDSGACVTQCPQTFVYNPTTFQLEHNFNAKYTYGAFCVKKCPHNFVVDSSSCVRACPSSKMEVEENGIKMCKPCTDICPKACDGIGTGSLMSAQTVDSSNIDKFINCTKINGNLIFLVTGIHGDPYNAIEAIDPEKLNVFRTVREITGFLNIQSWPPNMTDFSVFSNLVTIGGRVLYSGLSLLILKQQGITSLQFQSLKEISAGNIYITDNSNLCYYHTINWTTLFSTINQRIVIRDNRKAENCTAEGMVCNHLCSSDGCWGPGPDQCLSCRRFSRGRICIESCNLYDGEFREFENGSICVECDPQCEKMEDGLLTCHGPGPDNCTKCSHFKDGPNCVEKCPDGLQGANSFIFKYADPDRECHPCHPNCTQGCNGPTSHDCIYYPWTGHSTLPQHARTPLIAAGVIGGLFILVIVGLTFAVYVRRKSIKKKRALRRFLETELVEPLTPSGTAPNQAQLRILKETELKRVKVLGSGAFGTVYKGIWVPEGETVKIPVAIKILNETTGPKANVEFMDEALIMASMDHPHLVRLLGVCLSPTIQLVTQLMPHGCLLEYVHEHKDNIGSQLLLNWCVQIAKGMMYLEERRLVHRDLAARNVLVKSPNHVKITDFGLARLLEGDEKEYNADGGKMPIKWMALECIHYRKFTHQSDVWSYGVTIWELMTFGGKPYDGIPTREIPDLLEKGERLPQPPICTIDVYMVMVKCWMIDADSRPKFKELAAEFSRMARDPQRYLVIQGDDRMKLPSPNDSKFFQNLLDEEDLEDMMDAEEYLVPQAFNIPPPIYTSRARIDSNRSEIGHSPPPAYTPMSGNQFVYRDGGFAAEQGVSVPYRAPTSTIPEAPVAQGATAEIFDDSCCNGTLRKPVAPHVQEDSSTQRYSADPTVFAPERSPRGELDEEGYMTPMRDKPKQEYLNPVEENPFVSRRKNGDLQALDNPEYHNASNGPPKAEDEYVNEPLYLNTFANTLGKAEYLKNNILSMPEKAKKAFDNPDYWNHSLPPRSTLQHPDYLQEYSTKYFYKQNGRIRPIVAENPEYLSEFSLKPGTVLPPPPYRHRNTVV

U-937 [8] = assay: Induction of cell cycle arrest in human U-937 cells assessed as downregulation of Cyclic D3 at 0 to 300 nM measured after 24 hrs by western blot analysis; format: functional, cell-based; conditions: dose 0-300 nM
[9] = target: T1, Signal transducer and activator of transcription 5A (Homo sapiens); assay: Inhibition of STAT5 activation in human U-937 cells assessed as decrease in P-STAT5 incubated for 0 to 24 hrs by Western blot analysis; format: cell-based; conditions: time 0-24 hrs, DDE = dose-dependent effect
[10] = target: Signal transducer and activator of transcription 3 (Homo sapiens) (UniProt P40763); assay: Inhibition of STAT3 activation in human U-937 cells assessed as decrease in P-STAT3 at 100 uM by Western blot analysis; format: cell-based; conditions: time 0-24 hrs, TDE = time-dependent effect
Sequence of Signal transducer and activator of transcription 3 (Homo sapiens) (P40763 whole entry): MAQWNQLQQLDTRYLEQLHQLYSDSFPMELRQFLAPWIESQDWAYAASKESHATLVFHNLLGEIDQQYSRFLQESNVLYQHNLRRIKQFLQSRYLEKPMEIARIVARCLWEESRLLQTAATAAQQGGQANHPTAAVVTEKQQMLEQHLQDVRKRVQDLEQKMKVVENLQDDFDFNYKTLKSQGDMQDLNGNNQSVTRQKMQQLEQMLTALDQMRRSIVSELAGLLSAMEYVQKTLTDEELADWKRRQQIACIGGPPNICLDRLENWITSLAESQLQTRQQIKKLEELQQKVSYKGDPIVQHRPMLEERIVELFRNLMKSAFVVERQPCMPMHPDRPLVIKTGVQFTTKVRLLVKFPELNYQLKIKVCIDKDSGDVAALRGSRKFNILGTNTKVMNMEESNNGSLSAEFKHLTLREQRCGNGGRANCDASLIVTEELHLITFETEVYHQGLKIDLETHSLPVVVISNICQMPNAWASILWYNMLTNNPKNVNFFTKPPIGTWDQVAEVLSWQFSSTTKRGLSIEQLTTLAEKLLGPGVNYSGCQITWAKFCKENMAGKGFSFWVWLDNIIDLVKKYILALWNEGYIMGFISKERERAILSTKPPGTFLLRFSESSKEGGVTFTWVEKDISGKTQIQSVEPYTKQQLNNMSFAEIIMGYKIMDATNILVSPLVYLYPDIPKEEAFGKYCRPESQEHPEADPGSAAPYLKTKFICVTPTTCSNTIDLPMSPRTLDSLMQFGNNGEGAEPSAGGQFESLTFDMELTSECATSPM

[11] = target: NUAK family SNF1-like kinase 1 (Homo sapiens) (UniProt O60285); assay: Inhibition of human ARK5 at 0.5 uM relative to control
Sequence of NUAK family SNF1-like kinase 1 (Homo sapiens) (O60285 whole entry): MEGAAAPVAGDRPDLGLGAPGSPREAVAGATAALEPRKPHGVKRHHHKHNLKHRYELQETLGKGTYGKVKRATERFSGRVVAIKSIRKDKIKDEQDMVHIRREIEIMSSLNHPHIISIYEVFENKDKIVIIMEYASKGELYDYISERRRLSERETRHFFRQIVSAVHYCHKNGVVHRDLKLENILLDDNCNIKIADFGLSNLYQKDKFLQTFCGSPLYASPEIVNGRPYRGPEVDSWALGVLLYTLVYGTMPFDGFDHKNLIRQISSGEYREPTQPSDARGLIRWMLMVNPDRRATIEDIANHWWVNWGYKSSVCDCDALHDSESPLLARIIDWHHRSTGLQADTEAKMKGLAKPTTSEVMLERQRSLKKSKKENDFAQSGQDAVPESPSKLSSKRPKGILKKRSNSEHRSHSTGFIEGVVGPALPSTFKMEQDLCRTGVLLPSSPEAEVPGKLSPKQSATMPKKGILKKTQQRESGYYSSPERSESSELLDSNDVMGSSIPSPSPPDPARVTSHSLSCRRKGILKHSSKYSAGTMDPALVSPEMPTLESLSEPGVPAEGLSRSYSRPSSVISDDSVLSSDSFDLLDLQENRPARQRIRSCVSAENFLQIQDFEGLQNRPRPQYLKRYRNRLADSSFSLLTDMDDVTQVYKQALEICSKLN

[12] = target: Tyrosine-protein kinase Tec (Homo sapiens) (UniProt P42680); assay: Inhibition of TEC (unknown origin) at 0.5 uM relative to control
Sequence of Tyrosine-protein kinase Tec (Homo sapiens) (P42680 whole entry): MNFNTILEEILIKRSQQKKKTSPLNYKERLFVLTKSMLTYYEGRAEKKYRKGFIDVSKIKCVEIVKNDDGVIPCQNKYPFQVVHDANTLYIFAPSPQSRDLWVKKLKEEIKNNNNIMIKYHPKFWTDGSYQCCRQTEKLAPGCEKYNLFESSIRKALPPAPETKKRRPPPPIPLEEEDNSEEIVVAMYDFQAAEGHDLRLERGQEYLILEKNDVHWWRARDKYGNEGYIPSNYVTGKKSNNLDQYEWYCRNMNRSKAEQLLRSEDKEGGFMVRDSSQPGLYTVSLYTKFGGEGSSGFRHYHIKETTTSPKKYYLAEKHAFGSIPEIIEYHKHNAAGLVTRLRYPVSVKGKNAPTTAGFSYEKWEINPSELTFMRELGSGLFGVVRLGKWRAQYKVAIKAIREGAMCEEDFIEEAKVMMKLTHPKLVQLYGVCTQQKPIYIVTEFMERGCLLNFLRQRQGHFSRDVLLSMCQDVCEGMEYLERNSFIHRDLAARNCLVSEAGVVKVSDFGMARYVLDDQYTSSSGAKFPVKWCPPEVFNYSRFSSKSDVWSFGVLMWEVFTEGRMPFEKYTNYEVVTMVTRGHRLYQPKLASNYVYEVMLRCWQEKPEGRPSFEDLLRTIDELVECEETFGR

[13] = target: Tyrosine-protein kinase Blk (Homo sapiens) (UniProt P51451); assay: Inhibition of BLK (unknown origin) at 0.5 uM assessed as competition rate relative to control
Sequence of Tyrosine-protein kinase Blk (Homo sapiens) (P51451 2-505 limits assumed): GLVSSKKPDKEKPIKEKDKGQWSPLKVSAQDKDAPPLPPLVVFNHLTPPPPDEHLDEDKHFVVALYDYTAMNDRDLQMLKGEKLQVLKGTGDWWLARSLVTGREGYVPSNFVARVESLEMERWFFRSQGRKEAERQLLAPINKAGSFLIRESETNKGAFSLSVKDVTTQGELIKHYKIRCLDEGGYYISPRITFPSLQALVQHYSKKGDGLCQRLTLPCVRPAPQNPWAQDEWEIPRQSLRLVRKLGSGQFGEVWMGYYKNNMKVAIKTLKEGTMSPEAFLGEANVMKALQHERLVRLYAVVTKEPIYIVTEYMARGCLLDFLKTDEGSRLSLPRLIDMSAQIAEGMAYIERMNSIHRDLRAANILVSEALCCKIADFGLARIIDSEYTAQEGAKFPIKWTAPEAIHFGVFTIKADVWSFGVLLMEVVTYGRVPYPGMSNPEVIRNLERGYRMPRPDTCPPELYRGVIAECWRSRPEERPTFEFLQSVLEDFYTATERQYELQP

BaF3 = assay: cells; conditions: Mus musculus, BaF3, 72 h

Sequence of Tyrosine-protein kinase TXK (Homo sapiens) (P42681 whole entry): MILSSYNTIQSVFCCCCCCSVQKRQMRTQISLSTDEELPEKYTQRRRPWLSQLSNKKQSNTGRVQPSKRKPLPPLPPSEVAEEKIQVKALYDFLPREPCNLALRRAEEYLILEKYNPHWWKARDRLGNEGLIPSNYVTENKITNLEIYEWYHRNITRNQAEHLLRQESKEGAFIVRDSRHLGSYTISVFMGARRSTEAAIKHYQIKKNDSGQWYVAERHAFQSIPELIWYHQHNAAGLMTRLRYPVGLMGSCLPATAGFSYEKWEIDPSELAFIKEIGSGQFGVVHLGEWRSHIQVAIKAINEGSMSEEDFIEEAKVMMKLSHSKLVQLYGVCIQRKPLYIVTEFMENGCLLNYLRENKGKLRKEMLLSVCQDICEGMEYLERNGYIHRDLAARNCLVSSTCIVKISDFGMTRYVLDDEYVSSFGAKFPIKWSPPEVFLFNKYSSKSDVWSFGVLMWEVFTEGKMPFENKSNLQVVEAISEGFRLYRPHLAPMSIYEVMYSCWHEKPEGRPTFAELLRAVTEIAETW

- half-life [1]: 58.8 min
- inhibition [2]: 103%
- inhibition [4]: Active
- inhibition [7]: 40%
- inhibition [9]: Dde
- inhibition [10]: Tde
- inhibition [11]: 11%
- inhibition [12]: 99%
- inhibition [13]: 40%
- IC50 (BaF3): 134 nM
Compound: C=CC(=O)Nc1cc(Nc2ncc(Cl)c(O[C@@H]3CO[C@H]4[C@@H]3OC[C@H]4OC)n2)ccc1N(C)CCN(C)C
- Activity (U-937 [3]): 13.62%
- Activity (U-937 [5]): 23.11%
- Activity (U-937 [6]): 9.85%
- Activity (U-937 [8]): Active

— ChEMBL document CHEMBL5137068, “Discovery of Hexahydrofuro[3,2-b]furans as New Kinase-Selective and Orally Bioavailable JAK3 Inhibitors for the Treatment of Leukemia Harboring a JAK3 Activating Mutant” (J Med Chem, 2022)
